A short description of this data set: Stability, protonation and conditional stability constants (pGd) of Gd(III)-complexes (out-of-cell pH-potentiometry, 1H NMR relaxometry, competition with AAZTA). The settings on record: for conditional stability higher than that of the racemic counterparts: logK^c GdL and pGd; for conditional stability higher than that of the racemic counterparts / pGd / logK^cGdL and pGd higher than that of the parent [Gd(PCTA)]: pH 7.4; for logK^c GdL: conditional stability constant at pH 7.4; for *logKGd(H2L): diprotonated out-of-cage intermediate; for pGd: pGd = -log[Gd^3+]free, [Gd^3+]tot = 1 µM, [L]tot = 10 µM; for logKGdLH-1: deprotonation of inner-sphere water; for stability constant of Gd(III)-complex higher than that of the racemic complex: vs [Gd(rac-L1)]3- and [Gd(rac-L2)]. In kind it is physicochemical. On the procedure:
The protonation constants of ligands, the stability and protonation constants of Ca(II)‐ and Zn(II)‐complexes formed with rac‐L1, ent‐L1, rac‐L2, and ent‐L2 ligands were determined by pH‐potentiometric titration. The metal‐to‐ligand concentration ratio was 1:1 (the concentration of the ligand was generally 0.002 M). The protonation constants of the Cu(II)‐ and Gd(III)‐complexes were determined using pH‐potentiometry by titrating the pre‐prepared complexes from pH 2.0 to 12.0 with 0.2 M NaOH. The stability constants of the Gd(III)‐complexes with rac‐L1 and ent‐L1 ligands were determined by the “out‐of‐cell” technique because of their slow formation reaction. The pH range of the complexation equilibria and the time needed to reach the equilibria were determined by relaxometry. Eight–eight Gd(III) – rac‐L1 and Gd(III) – ent‐L1 samples were prepared, with pH values in the range of 1.7–3.0 at equilibrium ([Gd^3+] = [L] = 0.002 M). The samples were kept at 25 °C for 6 weeks to reach equilibrium. For the calculation of the stability constants of the [Gd(rac‐L1)]^3− and [Gd(ent‐L1)]^3− complexes, besides the protonation constants of ligands and the Gd(III) complexes, the stability constants of the di‐protonated [^*Gd(H2 rac‐L1)]^− and [^*Gd(H2 […])]^− out‐of‐cage complexes (considered as intermediates) was also used as fixed values, which were calculated from the pH‐potentiometric titration curve of the Gd(III) – rac‐L1 and Gd(III) – ent‐L1 system obtained in the pH range of 1.7–7.0.
For the pH measurements and titrations, the Metrohm 888 Titrando titration workstation Metrohm‐6.0234.110 combined electrode was used. Equilibrium measurements were carried out at a constant ionic strength (0.15 M NaCl) in 6 mL samples at 25 °C. The solutions were stirred, and N2 was bubbled through them. The titrations were made in the pH range 1.7–12.0. KH‐Phthalate (pH 4.005) and borax (pH 9.177) buffers were used to calibrate the pH meter. For the calculation of [H^+] from the measured pH values, the method proposed by Irving et al. was used as follows.^[ [46] ^] A 0.01M HCl solution was titrated with standardized NaOH solution at 0.15 M NaCl ionic strength. The differences (A) between the measured (pHread) and calculated pH (‐log[H^+]) values were used to obtain the equilibrium H^+ concentration from the pH values measured in the titration experiments (A = 0.02). For the equilibrium calculations, the stoichiometric water ionic product (pK w) was also needed in order to calculate [OH^−] values under basic conditions. The VNaOH – pHread data pairs of the HCl – NaOH titration obtained in the pH range 10.5–12.0 were used to calculate the pK w value (pK w = 13.83).
The stability constant of Gd(III)‐complexes with rac‐L2 and ent‐L2 ligands were determined by the measurement of the proton relaxation rates (r 1) studying the competition reaction of rac‐L2 and ent‐L2 ligands with AAZTA for Gd(III) ion at pH = 4.0 in 0.15 M NaCl solution. In these experiments, the concentration of Gd^3+, rac‐L2, and ent‐L2 ligands was 2.0 mM, while that of the AAZTA was varied between 1.0 and 6.0 mM (5 × 1.5 mL samples). The pH was adjusted to pH 4.0 by stepwise addition of concentrated NaOH or HCl solutions. The samples were kept at 70 °C for a month and then at 25°C for two months in order to attain the equilibrium (the time needed to reach the equilibria was determined by ^1H‐NMR relaxometry). ^1H‐NMR relaxometric measurement of Gd(III) – rac‐L2 – AAZTA and Gd(III) – ent‐L2 – AAZTA systems were performed with a Bruker Avance III 400 (9.4 T) equipped with BB inverse z gradient probe (5 mm). […]

The values that follow come from PMC11984905, “Chiral Switch of Gadopiclenol: New Standards in MRI Probes” (Advanced Science, 2025).

`O=C([O-])CCC(C(=O)[O-])N1CCN(C(CCC(=O)[O-])C(=O)[O-])Cc2cccc(n2)CN(C(CCC(=O)[O-])C(=O)[O-])CC1.[Gd+3]` (racemic) [[Gd(ent‐L1)]^3−]: the “conditional stability higher than that of the racemic counterparts” value is 0.6 – 1.5 logK unit.

As to `O=C(O)CCC(C(=O)O)N1CCN(C(CCC(=O)O)C(=O)O)Cc2cccc(n2)CN(C(CCC(=O)O)C(=O)O)CC1` (racemic) [rac‐L1, 2,2’,2’’-[3,6,9,15-tetraazabicyclo[9.3.1]pentadeca-1(15),11,13-triene-3,6,9-triyl]tripentanedioic acid], for the setting “0.15 M NaCl, 25 °C”, the “logK GdL” value is listed as 18.65(5), the logKGdH2L was 4.43 (3), the logKGdH3L is given as 4.35 (3) and the logKGdH4L is 2.25 (3). For the setting “0.15 M NaCl, 25 °C”, the logKGdHL is recorded as 5.32 (2) and the “*logKGd(H2L)” value is listed as 3.58 (2). Besides, under “0.15 M NaCl”, the “logK^c GdL” value is on record as 15.34 and the pGd worked out at 16.33.

On to `O=C(CCC(C(=O)O)N1CCN(C(CCC(=O)NCC(O)CO)C(=O)O)Cc2cccc(n2)CN(C(CCC(=O)NCC(O)CO)C(=O)O)CC1)NCC(O)CO` (racemic) [rac‐L2], for which the “logK^cGdL and pGd higher than that of the parent [Gd(PCTA)]” value (from here on “logK^cGdL and pGd higher than that”) is 0.6 – 1.2 logK unit. Moreover, for the setting “0.15 M NaCl, 25 °C”, the “logK GdL” value is recorded as 18.96 (7) and the logKGdLH-1 is 11.15 (4). Further, for the setting “0.15 M NaCl”, the “logK^c GdL” value came out at 16.76 and the pGd is recorded as 17.70.

For `O=C(CCC(C(=O)[O-])N1CCN(C(CCC(=O)NCC(O)CO)C(=O)[O-])Cc2cccc(n2)CN(C(CCC(=O)NCC(O)CO)C(=O)[O-])CC1)NCC(O)CO.[Gd+3]` (stereo not drawn) [[Gd(ent‐L2)]], the “conditional stability higher than that of the racemic counterparts” value is 0.6 – 1.5 logK unit.

With `O=C(O)CCC(C(=O)O)N1CCN(C(CCC(=O)O)C(=O)O)Cc2cccc(n2)CN(C(CCC(=O)O)C(=O)O)CC1` (stereo not drawn) [ent‐L1], the “logK^cGdL and pGd higher than that” value is 0.6 – 1.2 logK unit; the “stability constant of Gd(III)-complex higher than that of the racemic complex” value was found to be 1.5 logK unit. In addition, where the note is “0.15 M NaCl, 25 °C”, the “logK GdL” value is recorded as 20.17 (9), the logKGdH2L was 4.52 (1), the logKGdH3L is 4.15 (2) and the logKGdHL is listed as 5.28 (1). Also, the “*logKGd(H2L)” value (0.15 M NaCl, 25 °C) was 4.00 (3). Moreover, for the setting “0.15 M NaCl”, the “logK^c GdL” value came to 16.85 and the pGd was determined as 17.80.

In the case of `O=C(CCC(C(=O)O)N1CCN(C(CCC(=O)NCC(O)CO)C(=O)O)Cc2cccc(n2)CN(C(CCC(=O)NCC(O)CO)C(=O)O)CC1)NCC(O)CO` (stereo not drawn) [ent‐L2], the “logK^cGdL and pGd higher than that” value is 0.6 – 1.2 logK unit; the “stability constant of Gd(III)-complex higher than that of the racemic complex” value was determined as 1.5 logK unit. Besides, where the note is “0.15 M NaCl, 25 °C”, the “logK GdL” value is 20.36 (3) and the logKGdLH-1 was 11.66 (1). Further, under “0.15 M NaCl”, the “logK^c GdL” value worked out at 17.31 and the pGd is given as 18.27.
